Data from patent publication US20230312528A1, “2-OXO-IMIDAZOLIDINE-4-CARBOXAMIDES AS NAV1.8 INHIBITORS” (Merck Sharp & Dohme LLC, priority 2020, published 2023).

Each molecule was assayed against human NaV1.8 (Homo sapiens (Human), UniProt Q9Y5Y9) (assay: Nav1.8 Qube automated patch-clamp assay). Details: human NaV1.8 stably expressed in HEK 293 cells; automated 384-well patch-clamp; resting or inactivated state not specified.
Format: cell-based
Method: Compounds were tested on human NaV1.8 and NaV1.5 channels stably expressed in human embryo kidney (HEK) 293 cells. Sodium current measurements on Qube® were conducted as follows: automated 384-well patch-clamp assays on the Qube® platform (Sophion Biosciences) were used to measure the inhibition of sodium flow through human NaV1.8 and NaV1.5 channels. Whole-cell voltage-clamp recordings were performed in QChips® (Sophion Biosciences) at room temperature. NaV1.8 current measurements on Qube® were obtained as follows: NaV1.8 currents were elicited with a 10 second 1 Hertz (Hz) pulse train from a holding potential of −90 millivolts (mV), delivered to the cells once per minute in the control condition (DMSO only) and after compound addition. The 1 hertz pulse train stimulation consisted of ten test pulses to 10 millivolt (mV) for 20 milliseconds (ms), each of which was followed by a 980 millisecond repolarization to −67 millivolts. At the end of the 10 second pulse train stimulation, a 5 second hyperpolarization step to −100 millivolt (mV) was used to recover NaV1.8 from fast inactivation. The peak currents elicited by the 1st and 10th test pulses were used to determine IC50 values for resting inhibition and inactivated state inhibition. NaV1.5 current measurements on Qube® were obtained as follows: NaV1.5 currents were elicited with a 20 second 3 Hertz pulse train in the control condition (DMSO only) and after compound addition. The pulse train consisted of sixty 20 millisecond test pulses to 0 millivolt from a holding potential of −80 millivolt (mV). The average peak currents elicited by the last 3 test pulses were used to determine IC50 values for NaV1.5 inhibition.
The following buffers were used for the Qube® recordings: External buffer for NaV1.8 Qube® recording: 150 NaCl, 2 CaCl2, 5 KCl, 1 Mg Cl2, 10 HEPES, 12 Dextrose; External buffer for Qube® NaV1.5 recording: 120 N-Methyl-D-Glucamine, 40 NaCl, 1 KCl, 2.7 CaCl2, 5 HEPES, 0.5 MgCl2; and Internal buffer for Qube® recording: 120 CsF, 30 CsCl, 10 EGTA, 5 HEPES, 5 NaF, 2 MgCl2.
For all Qube® experiments offline analysis was used to determine percent inhibition as a function of drug concentration. IC50 values were determined by fitting to the Hill equation.

human NaV1.8, sequence (Q9Y5Y9 whole entry): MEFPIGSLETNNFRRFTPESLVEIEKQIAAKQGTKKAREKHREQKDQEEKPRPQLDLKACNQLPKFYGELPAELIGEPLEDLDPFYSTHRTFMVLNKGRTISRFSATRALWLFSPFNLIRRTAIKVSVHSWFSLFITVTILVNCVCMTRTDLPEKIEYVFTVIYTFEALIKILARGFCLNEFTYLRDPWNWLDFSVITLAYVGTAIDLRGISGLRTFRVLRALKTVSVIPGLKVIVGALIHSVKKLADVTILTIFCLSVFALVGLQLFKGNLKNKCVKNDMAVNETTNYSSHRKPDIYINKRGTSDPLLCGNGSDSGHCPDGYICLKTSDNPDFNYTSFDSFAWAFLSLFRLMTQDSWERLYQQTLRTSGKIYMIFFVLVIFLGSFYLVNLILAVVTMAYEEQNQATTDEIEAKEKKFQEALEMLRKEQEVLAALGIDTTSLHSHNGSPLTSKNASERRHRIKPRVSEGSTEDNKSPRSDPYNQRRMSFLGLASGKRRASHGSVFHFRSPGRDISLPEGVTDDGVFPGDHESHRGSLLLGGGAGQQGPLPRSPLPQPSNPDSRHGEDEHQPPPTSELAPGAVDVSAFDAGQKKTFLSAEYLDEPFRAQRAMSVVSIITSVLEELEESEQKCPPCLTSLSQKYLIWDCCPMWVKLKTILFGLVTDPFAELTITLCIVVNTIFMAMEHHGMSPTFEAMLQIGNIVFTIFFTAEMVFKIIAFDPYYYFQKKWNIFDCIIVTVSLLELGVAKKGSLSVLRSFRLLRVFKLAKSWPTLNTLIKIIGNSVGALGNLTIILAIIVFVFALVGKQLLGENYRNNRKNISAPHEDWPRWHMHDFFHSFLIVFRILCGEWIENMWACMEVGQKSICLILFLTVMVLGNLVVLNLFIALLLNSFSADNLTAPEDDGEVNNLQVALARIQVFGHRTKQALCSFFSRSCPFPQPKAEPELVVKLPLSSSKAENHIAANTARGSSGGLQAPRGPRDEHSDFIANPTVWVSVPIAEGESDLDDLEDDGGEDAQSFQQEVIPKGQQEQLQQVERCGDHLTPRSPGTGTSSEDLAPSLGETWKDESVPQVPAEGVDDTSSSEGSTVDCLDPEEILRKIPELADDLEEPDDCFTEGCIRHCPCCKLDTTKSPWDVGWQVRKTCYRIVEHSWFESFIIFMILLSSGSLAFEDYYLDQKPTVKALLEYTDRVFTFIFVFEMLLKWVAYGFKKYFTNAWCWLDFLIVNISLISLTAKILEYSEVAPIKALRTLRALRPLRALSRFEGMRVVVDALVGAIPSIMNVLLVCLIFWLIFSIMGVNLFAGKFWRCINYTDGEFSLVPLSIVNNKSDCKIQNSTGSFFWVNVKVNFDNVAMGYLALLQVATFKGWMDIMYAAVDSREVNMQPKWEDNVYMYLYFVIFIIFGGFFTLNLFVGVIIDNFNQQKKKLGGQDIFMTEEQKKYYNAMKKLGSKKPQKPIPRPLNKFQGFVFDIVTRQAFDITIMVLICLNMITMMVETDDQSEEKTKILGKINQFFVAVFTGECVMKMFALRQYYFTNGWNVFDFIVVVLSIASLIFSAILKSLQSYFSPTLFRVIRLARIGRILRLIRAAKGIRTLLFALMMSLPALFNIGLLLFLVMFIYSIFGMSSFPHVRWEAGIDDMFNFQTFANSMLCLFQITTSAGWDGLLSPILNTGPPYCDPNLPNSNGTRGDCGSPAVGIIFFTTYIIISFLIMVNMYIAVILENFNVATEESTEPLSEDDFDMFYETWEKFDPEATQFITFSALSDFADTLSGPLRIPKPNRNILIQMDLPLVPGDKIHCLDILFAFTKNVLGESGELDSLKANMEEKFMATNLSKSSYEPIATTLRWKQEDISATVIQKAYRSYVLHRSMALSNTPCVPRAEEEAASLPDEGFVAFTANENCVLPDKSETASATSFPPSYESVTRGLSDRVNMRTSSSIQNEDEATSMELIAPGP

Row | SMILES | IC50 [nM]
1 | O=C1NC[C@@H](C(=O)NC(COc2ccc(F)c(Cl)c2)c2ccc(F)c(Cl)c2)N1 (single isomer, unassigned) [Example 1A, (S)—N—((R or S)-2-(3-chloro-4-fluorophenoxy)-1-(3-chloro-4-fluorophenyl)ethyl)-2-oxoimidazolidine-4-carboxamide] | 4
2 | O=C1NC[C@@H](C(=O)NC(COc2ccc(F)c(Cl)c2)c2ccc(F)c(Cl)c2)N1 (single isomer, unassigned) [Example 1B, (S)—N—((R or S)-2-(3-chloro-4-fluorophenoxy)-1-(3-chloro-4-fluorophenyl)ethyl)-2-oxoimidazolidine-4-carboxamide] | 22
3 | CN1C(=O)NCC1C(=O)NC(c1ccc(Cl)cc1)c1ccc(Cl)cc1 (single isomer, unassigned) [Example 2A, (R or S)—N-(bis(4-chlorophenyl)methyl)-3-methyl-2-oxoimidazolidine-4-carboxamide] | 34
4 | CN1C(=O)NCC1C(=O)NC(c1ccc(Cl)cc1)c1ccc(Cl)cc1 (single isomer, unassigned) [Example 2B, (R or S)—N-(bis(4-chlorophenyl)methyl)-3-methyl-2-oxoimidazolidine-4-carboxamide] | 8100
5 | O=C1NC[C@@H](C(=O)NC(c2cnc(C(F)(F)F)c(Cl)c2)c2ccc(Cl)c(C(F)F)n2)N1 (single isomer, unassigned) [Example 3A, (S)—N—((R or S)-(5-chloro-6-(difluoromethyl)pyridin-2-yl)(5-chloro-6-(trifluoromethyl)pyridin-3-yl)methyl)-2-oxoimidazolidine-4-carboxamide] | 9.7
6 | O=C1NC[C@@H](C(=O)NC(c2cnc(C(F)(F)F)c(Cl)c2)c2ccc(Cl)c(C(F)F)n2)N1 (single isomer, unassigned) [Example 3B, (S)—N—((R or S)-(5-chloro-6-(difluoromethyl)pyridin-2-yl)(5-chloro-6-(trifluoromethyl)pyridin-3-yl)methyl)-2-oxoimidazolidine-4-carboxamide] | 2.7
7 | O=C1NC[C@@H](C(=O)NC(c2ccc(F)c(Cl)c2)c2cc(C(F)(F)F)[nH]n2)N1 (single isomer, unassigned) [Example 4A, (S)—N—((R or S)-(3-chloro-4-fluorophenyl)(5-(trifluoromethyl)-1H-pyrazol-3-yl)methyl)-2-oxoimidazolidine-4-carboxamide] | 203
8 | O=C1NC[C@@H](C(=O)NC(c2ccc(F)c(Cl)c2)c2cc(C(F)(F)F)[nH]n2)N1 (single isomer, unassigned) [Example 4B, (S)—N—((R or S)-(3-chloro-4-fluorophenyl)(5-(trifluoromethyl)-1H-pyrazol-3-yl)methyl)-2-oxoimidazolidine-4-carboxamide] | 6.2
9 | O=C1NC[C@@H](C(=O)NC(c2ccc(F)c(Cl)c2F)C2CCN(C3(C(F)(F)F)CC3)CC2)N1 (single isomer, unassigned) [Example 5A, (S)—N—((R or S)-(3-chloro-2,4-difluorophenyl)(1-(1-(trifluoromethyl)-cyclopropyl)piperidin-4-yl)methyl)-2-oxoimidazolidine-4-carboxamide] | 1.6
10 | O=C1NC[C@@H](C(=O)NC(c2ccc(F)c(Cl)c2F)C2CCN(C3(C(F)(F)F)CC3)CC2)N1 (single isomer, unassigned) [Example 5B, (S)—N—((R or S)-(3-chloro-2,4-difluorophenyl)(1-(1-(trifluoromethyl)-cyclopropyl)piperidin-4-yl)methyl)-2-oxoimidazolidine-4-carboxamide] | 74
11 | O=C1NC[C@@H](C(=O)NC(c2ccc(OC(F)(F)F)cc2)c2ccc(F)c(C(F)(F)F)n2)N1 (single isomer, unassigned) [Example 7A, (S)—N—((R or S)-(5-fluoro-6-(trifluoromethyl)pyridin-2-yl)(4-(trifluoromethoxy)phenyl)-methyl)-2-oxoimidazolidine-4-carboxamide] | 1.1
12 | O=C1NC[C@@H](C(=O)NC(c2ccc(OC(F)(F)F)cc2)c2ccc(F)c(C(F)(F)F)n2)N1 (single isomer, unassigned) [Example 7B, (S)—N—((R or S)-(5-fluoro-6-(trifluoromethyl)pyridin-2-yl)(4-(trifluoromethoxy)phenyl)methyl)-2-oxo-imidazolidine-4-carboxamide] | 44
13 | O=C1NC[C@@H](C(=O)NC(c2ccc(F)c(Cl)c2F)[C@@H]2CC[C@@H](C(F)(F)F)CO2)N1 (single isomer, unassigned) [Example 8A, (S)—N—((R or S)-(3-chloro-2,4-difluorophenyl)((trans)-5-(trifluoromethyl)tetrahydro-2H-pyran-2-yl)methyl)-2-oxoimidazolidine-4-carboxamide] | 1140
14 | O=C1NC[C@@H](C(=O)NC(c2ccc(F)c(Cl)c2F)[C@@H]2CC[C@@H](C(F)(F)F)CO2)N1 (single isomer, unassigned) [Example 8B, (S)—N—((R or S)-(3-chloro-2,4-difluorophenyl)((trans)-5-(trifluoromethyl)tetrahydro-2H-pyran-2-yl)methyl)-2-oxoimidazolidine-4-carboxamide] | 8.4

Further lines, results first:

Row | IC50 [nM] | SMILES
15 | 116 | O=C1NC[C@@H](C(=O)NC(c2ccc(C(F)(F)F)nc2)c2csc(C(F)(F)F)n2)N1 (mixture of isomers) [Example 19, (S)-2-oxo-N—((R and S)-(6-(trifluoromethyl)pyridin-3-yl)(2-(trifluoromethyl)thiazol-4-yl)methyl)imidazolidine-4-carboxamide]
16 | 219 | O=C1NC[C@@H](C(=O)NC(COc2ccc(C(F)(F)F)nc2)c2ccc(F)c(Cl)c2)N1 (mixture of isomers) [Example 53, (4S)-N-(1-(3-chloro-4-fluorophenyl)-2-((6-(trifluoromethyl)pyridin-3-yl)oxy)ethyl)-2-oxoimidazolidine-4-carboxamide]
17 | 54 | O=C1NC[C@@H](C(=O)NC(c2ccc(Cl)cc2)c2ccc3ncsc3c2)N1 (mixture of isomers) [Example 81, (4S)-N-(benzo[d]thiazol-6-yl(4-chlorophenyl)methyl)-2-oxoimidazolidine-4-carboxamide]
18 | 23 | O=C1NC[C@@H](C(=O)NC(c2ccc(F)c(Cl)c2F)[C@@H]2CC[C@@H](C(F)(F)F)CO2)N1 (single isomer, unassigned) [Example 8C, (S)—N—((R or S)-(3-chloro-2,4-difluorophenyl)((trans)-5-(trifluoromethyl)tetrahydro-2H-pyran-2-yl)methyl)-2-oxoimidazolidine-4-carboxamide]
19 | 2 | O=C1NC[C@@H](C(=O)NC(c2ccc(OC(F)(F)F)cc2)c2cccc(Cl)c2)N1 (single isomer, unassigned) [Example 9A, (4S)—N—((R or S)-(3-chlorophenyl)(4-(trifluoromethoxy)phenyl)methyl)-2-oxoimidazolidine-4-carboxamide]
20 | 2 | O=C1NC[C@@H](C(=O)NC(c2ccc(OC(F)(F)F)cc2)c2cccc(Cl)c2)N1 (single isomer, unassigned) [Example 9B, (4S)—N—((R or S)-(3-chlorophenyl)(4-(trifluoromethoxy)-phenyl)methyl)-2-oxoimidazolidine-4-carboxamide]
21 | 1070 | CN1CC(C(=O)NC(c2ccc(Cl)cc2)c2ccc(Cl)cc2)NC1=O (single isomer, unassigned) [Example 10A, (R or S)-N-[bis(4-chlorophenyl)methyl]-1-methyl-2-oxoimidazolidine-4-carboxamide]
22 | 504 | CN1CC(C(=O)NC(c2ccc(Cl)cc2)c2ccc(Cl)cc2)NC1=O (single isomer, unassigned) [Example 10B, (R or S)-N-[bis(4-chlorophenyl)methyl]-1-methyl-2-oxoimidazolidine-4-carboxamide]
23 | 50 | O=C1NC[C@@H](C(=O)NC(c2ccc(F)c(Cl)c2)c2ccc(F)c(OCC(F)(F)F)n2)N1 (single isomer, unassigned) [Example 11A, (4S)-N-{((R or S)-3-chloro-4-fluorophenyl)[5-fluoro-6-(2,2,2-trifluoro-ethoxy)pyridin-2-yl]methyl}-2-oxoimidazolidine-4-carboxamide]
24 | 3.9 | O=C1NC[C@@H](C(=O)NC(c2ccc(F)c(Cl)c2)c2ccc(F)c(OCC(F)(F)F)n2)N1 (single isomer, unassigned) [Example 11B, (4S)-N-{((R or S)-3-chloro-4-fluoro-phenyl)[5-fluoro-6-(2,2,2-trifluoro-ethoxy)pyridin-2-yl]methyl}-2-oxoimidazolidine-4-carboxamide]
